Measured values as given in patent US20140378513A1, “USE OF FUNGICIDES IN LIQUID SYSTEMS” (priority 2011, published 2014).

Experiments:
[1] = tested on: Pest in infected Scenedesmus dimorphus culture; assay: Fungicide efficacy on pest control in infected microalgae culture; type: cell-based
Source text: Failure to treat an infected culture results in the collapse and loss of the microalgae culture. […] Test fungicides are graded on a rating scale of 0 to 3 where a score of 0 represents an efficacy of between 0 and 25%, a score of 1 represents an efficacy of between 26 and 50%, a score of 2 represents an efficacy of between 51 and 75% and a score of 3 represents an efficacy of between 76 and 100%.

[2] = tested on: Paraphysoderma sedebokerensis; assay: Haematococcus pluvialis outdoor pond, PCR monitoring and treatment; details: 1 ppm
Procedure: A 200,000 liter outdoor pond is inoculated with Haematococcus pluvialis at an initial OD (750 nm) of ˜0.15 (pond P08). Growth of the microalgae is monitored daily by measuring the ash free dry weight of the culture. PCR monitoring is performed daily to detect the presence of the chytrid fungus Paraphysoderma sedebokerensis or close relatives using […] (SEQ ID NO. 38) and […] (SEQ ID NO. 39) as primers.
(§1) Initially, the Ct value for the pest is above the threshold of Ct=30. The measured Ct observed for P. sedebokerensis stays below Ct=30 and indicates a need for crop protective action. Once detected with a Ct<30, chlorothalonil is added at a concentration of 1 ppm. Daily monitoring is continued and the Ct observed for P. sedebokerensis increases above the Ct=30 threshold and remains above the threshold.

[3] = tested on: Rhizophidium planktonicum; assay: Arthrospira sp. outdoor pond, qPCR monitoring and treatment; details: 1 ppm
Procedure: A 200,000 liter outdoor pond located in Las Cruces, N. Mex. is inoculated with Arthrospira sp. at an initial DW of 0.2 g/l. Growth of the microalgae is monitored daily by measuring the ash free dry weight of the culture. qPCR monitoring is performed daily to detect the presence of the chytrid fungus Rhizophidium planktonicum or close relatives using primers […] (SEQ ID NO. 40) and […] (SEQ ID NO. 41).
as §1, with “R. planktonicum” for “P. sedebokerensis”

## N#Cc1c(Cl)c(Cl)c(Cl)c(C#N)c1Cl [chlorothalonil, 2,4,5,6-tetrachlorobenzene-1,3-dicarbonitrile]
[1]; @ 2 ppm, second trial
  Scenedesmus dimorphus Efficacy confirmation: 75.7% @ 2 ppm
[1]; Tetradesmus dimorphus, read-out: Scenedesmus dimorphus efficacy
  activity at 2 ppm: 84.5%
[1]; rating scale of 0 to 3 by percent efficacy
  Rating: 3 (a score of 3 represents an efficacy of between 76 and 100%)
[2]
  Ct observed for P. sedebokerensis after treatment: > 30
[3]
  Ct observed for R. planktonicum after treatment: > 30
